{"source": "the supplement of paper PMC10307832", "experiment_in_all_cases": "relative viability (nuclei count vs DMSO), 5 days (fraction); higher = more cells survive", "key": {"NCI-H2347": {"test_system": "NCI-H2347", "method_in_brief": "(§1)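 The day after seeding in 1536-well plates, lung cancer cell lines were treated by pin tool with a single drug, or with a fixed anchor-drug dose together with five library-drug doses (not always all listed) in √10 steps. After 5 days, a combined fix-and-stain solution (final 0.05% Triton X-100, 1% formaldehyde, 1 ug/ml Hoechst) was added. Nuclei counted on 4× images gave relative viability as treated counts over vehicle counts, reported as the median of duplicate plates.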"}, "HCC-78": {"test_system": "HCC-78", "method_in_brief": "as §1"}, "HARA": {"test_system": "HARA", "method_in_brief": "as §1"}, "NCI-H1651": {"test_system": "NCI-H1651", "method_in_brief": "as §1"}, "NCI-H520": {"test_system": "NCI-H520", "method_in_brief": "as §1"}, "NCI-H2405": {"test_system": "NCI-H2405", "method_in_brief": "as §1"}, "NCI-H647": {"test_system": "NCI-H647", "method_in_brief": "as §1"}, "NCI-H522": {"test_system": "NCI-H522", "method_in_brief": "as §1"}, "LK-2": {"test_system": "LK-2", "method_in_brief": "as §1"}, "NCI-H1650": {"test_system": "NCI-H1650", "method_in_brief": "as §1"}, "COR-L23": {"test_system": "COR-L23", "method_in_brief": "as §1"}}}
{"smiles": "Cc1cn(-c2cc(NC(=O)c3ccc(C)c(Nc4nccc(-c5cccnc5)n4)c3)cc(C(F)(F)F)c2)cn1", "note": "[Nilotinib] + N=C(N)NC(=N)NCCc1ccccc1 [Phenformin] (partner 250 µM)", "values": [{"measurement": "relative viability", "setting": "NCI-H2347; first compound 0.001 µM", "value": 0.386}, {"measurement": "relative viability", "setting": "NCI-H2347; first compound 0.003162 µM", "value": 0.308}, {"measurement": "relative viability", "setting": "NCI-H2347; first compound 0.01 µM", "value": 0.551}, {"measurement": "relative viability", "setting": "NCI-H2347; first compound 0.03162 µM", "value": 0.277}, {"measurement": "relative viability", "setting": "NCI-H2347; first compound 0.1 µM", "value": 0.327}, {"measurement": "relative viability", "setting": "HCC-78; first compound 0.001 µM", "value": 0.786}, {"measurement": "relative viability", "setting": "HCC-78; first compound 0.003162 µM", "value": 0.643}, {"measurement": "relative viability", "setting": "HCC-78; first compound 0.01 µM", "value": 0.706}, {"measurement": "relative viability", "setting": "HCC-78; first compound 0.03162 µM", "value": 0.637}, {"measurement": "relative viability", "setting": "HCC-78; first compound 0.1 µM", "value": 0.636}, {"measurement": "relative viability", "setting": "HARA; first compound 0.001 µM", "value": 0.402}, {"measurement": "relative viability", "setting": "HARA; first compound 0.003162 µM", "value": 0.555}, {"measurement": "relative viability", "setting": "HARA; first compound 0.01 µM", "value": 0.613}, {"measurement": "relative viability", "setting": "HARA; first compound 0.03162 µM", "value": 0.29}, {"measurement": "relative viability", "setting": "HARA; first compound 0.1 µM", "value": 0.322}, {"measurement": "relative viability", "setting": "NCI-H1651; first compound 0.001 µM", "value": 0.346}, {"measurement": "relative viability", "setting": "NCI-H1651; first compound 0.003162 µM", "value": 0.392}, {"measurement": "relative viability", "setting": "NCI-H1651; first compound 0.01 µM", "value": 0.437}, {"measurement": "relative viability", "setting": "NCI-H1651; first compound 0.03162 µM", "value": 0.308}, {"measurement": "relative viability", "setting": "NCI-H1651; first compound 0.1 µM", "value": 0.356}, {"measurement": "relative viability", "setting": "NCI-H520; first compound 0.001 µM", "value": 0.707}, {"measurement": "relative viability", "setting": "NCI-H520; first compound 0.01 µM", "value": 0.655}, {"measurement": "relative viability", "setting": "NCI-H520; first compound 0.03162 µM", "value": 0.447}, {"measurement": "relative viability", "setting": "NCI-H520; first compound 0.1 µM", "value": 0.428}, {"measurement": "relative viability", "setting": "NCI-H2405; first compound 0.001 µM", "value": 0.381}, {"measurement": "relative viability", "setting": "NCI-H2405; first compound 0.003162 µM", "value": 0.357}, {"measurement": "relative viability", "setting": "NCI-H2405; first compound 0.01 µM", "value": 0.397}, {"measurement": "relative viability", "setting": "NCI-H2405; first compound 0.03162 µM", "value": 0.356}, {"measurement": "relative viability", "setting": "NCI-H2405; first compound 0.1 µM", "value": 0.346}, {"measurement": "relative viability", "setting": "NCI-H647; first compound 0.001 µM", "value": 0.627}, {"measurement": "relative viability", "setting": "NCI-H647; first compound 0.003162 µM", "value": 0.628}, {"measurement": "relative viability", "setting": "NCI-H647; first compound 0.01 µM", "value": 0.594}, {"measurement": "relative viability", "setting": "NCI-H647; first compound 0.03162 µM", "value": 0.449}, {"measurement": "relative viability", "setting": "NCI-H647; first compound 0.1 µM", "value": 0.336}, {"measurement": "relative viability", "setting": "NCI-H522; first compound 0.001 µM", "value": 0.591}, {"measurement": "relative viability", "setting": "NCI-H522; first compound 0.003162 µM", "value": 0.613}, {"measurement": "relative viability", "setting": "NCI-H522; first compound 0.01 µM", "value": 0.719}, {"measurement": "relative viability", "setting": "NCI-H522; first compound 0.03162 µM", "value": 0.663}, {"measurement": "relative viability", "setting": "NCI-H522; first compound 0.1 µM", "value": 0.56}, {"measurement": "relative viability", "setting": "LK-2; first compound 0.001 µM", "value": 0.441}, {"measurement": "relative viability", "setting": "LK-2; first compound 0.003162 µM", "value": 0.367}, {"measurement": "relative viability", "setting": "LK-2; first compound 0.01 µM", "value": 0.337}, {"measurement": "relative viability", "setting": "LK-2; first compound 0.03162 µM", "value": 0.22}, {"measurement": "relative viability", "setting": "LK-2; first compound 0.1 µM", "value": 0.314}, {"measurement": "relative viability", "setting": "NCI-H1650; first compound 0.001 µM", "value": 0.464}, {"measurement": "relative viability", "setting": "NCI-H1650; first compound 0.003162 µM", "value": 0.437}, {"measurement": "relative viability", "setting": "NCI-H1650; first compound 0.01 µM", "value": 0.385}, {"measurement": "relative viability", "setting": "NCI-H1650; first compound 0.03162 µM", "value": 0.32}, {"measurement": "relative viability", "setting": "NCI-H1650; first compound 0.1 µM", "value": 0.307}, {"measurement": "relative viability", "setting": "COR-L23; first compound 0.001 µM", "value": 0.448}, {"measurement": "relative viability", "setting": "COR-L23; first compound 0.003162 µM", "value": 0.52}, {"measurement": "relative viability", "setting": "COR-L23; first compound 0.01 µM", "value": 0.591}, {"measurement": "relative viability", "setting": "COR-L23; first compound 0.03162 µM", "value": 0.42}]}
